We go through one compound from US20110060044A1, “ALIPHATIC ACID-CONTAINING N-HALOGENATED AMINO ACID FORMULATIONS” (ALCON RESEARCH, LTD., priority 2007, published 2011).

Entries after “also recorded” stand apart in the source; their conditions may differ.

For assay [1], the system named is S. aureus. Kind of assay: Antimicrobial activity (time-kill viability) evaluation with S. aureus. The class given is cell-based. As to conditions: measured by viable cells per mL, Table 1 / FIG. 1. Here is the method: The antimicrobial activity of the formulations according to embodiments of the present invention were evaluated by a standard microbiological analysis. […] For the evaluation, bacterial and fungal isolates were grown overnight on appropriate agar media as source of fresh cells. A suspension of these fresh cells was prepared in saline at approximately 1×10^8 cfu/mL. These suspensions were added directly to the test agents (various solutions of sodium 2,2-dimethyl-N,N-dichlorotaurine and control solutions). The initial concentration of cells in the test agent solutions was approximately 1×10^6 cfu/mL. The exposure of microorganisms to the test agent was conducted at room temperature for up to 60 minutes. At selected times, an aliquot was withdrawn and diluted into phosphate buffered saline at 4° C. Viability was determined following serial dilution and filtration onto Milliflex cassettes.

Assay [2] deals with C. albicans. Briefly: Antimicrobial activity (time-kill viability) evaluation with C. albicans. The class given is cell-based. As to conditions: measured by viable cells per mL, Table 2 / FIG. 2. The protocol:
The antimicrobial activity of the formulations according to embodiments of the present invention were evaluated by a standard microbiological analysis. The results of this evaluation are summarized in Tables 1 and 2 below and are shown graphically in FIGS. 1 and 2. For the evaluation, bacterial and fungal isolates were grown overnight on appropriate agar media as source of fresh cells. A suspension of these fresh cells was prepared in saline at approximately 1×10^8 cfu/mL. These suspensions were added directly to the test agents (various solutions of sodium 2,2-dimethyl-N,N-dichlorotaurine and control solutions). The initial concentration of cells in the test agent solutions was approximately 1×10^6 cfu/mL. The exposure of microorganisms to the test agent was conducted at room temperature for up to 60 minutes. At selected times, an aliquot was withdrawn and diluted into phosphate buffered saline at 4° C. Viability was determined following serial dilution and filtration onto Milliflex cassettes.

In the case of `CC(C)(CS(=O)(=O)O)N(Cl)Cl` [2,2-dimethyl-N,N-dichlorotaurine], the “anti-infective (antimicrobial) activity when the formulation contained sodium acetate” value in assay [1] and in assay [2] was “dramatically improved; also recorded: increased” each time.
